How the values were obtained:
UM-SCC-74B spheroids = assay: 3D tumor spheroid growth, UM-SCC-74B; assay type: cell-based, human; conditions: for Maximum time to termination / Median time to termination: volume >600 μm^3; for CDI: CDI = AB/(A*B)
Protocol: (§1) Cells were irradiated using ^137Cs gamma-ray photons at a dose-rate of ~1 Gy/min (Best Theratronics Gammacell® 40Exactor, Springfield, USA).
For liquid overlay 3D spheroid formation, 96-well plates were coated with 0.15% agarose dissolved in PBS with 1% penicillin/streptomycin. 1000 UM-SCC-74B cells/well were seeded and incubated at 37°C for 3 days prior to treatment. […] Half of the medium was replaced every 48 h for the first 10 days, thereafter every 4 days. […] Images were obtained every 2–4 days using a Canon EOS 700D camera mounted on an inverted Nikon Diaphot-TMD microscope. […] Each spheroid was normalized to its own starting volume at the start of treatment (Day 0, growth ratio = 1). Spheroids exceeding a volume of 600 μm^3 were excluded (i.e., terminated) from further analyses as 600 μm^3 is the maximum size possible to obtain in these settings with uncompromised growth conditions.
GraphPad Prism version 6.07 (GraphPad Software, San Diego, USA) was used for data processing and analysis. p-values were determined using unpaired student's t-test for comparison between two groups or one-way ANOVA followed by Tukey's multiple comparisons test, with p < 0.05 (^*), p < 0.01 (^**), p < 0.001 (^***), and p < 0.0001 (^****). For XTT assays cell viability was normalized for irradiated and unirradiated samples separately. […] CDI ≤ 0.7 equaled significant synergistic effect, CDI ≤ 1 equaled additive effect and CDI > 1 equaled antagonistic effect ([29]).

GLB-1 [1] = assay: Western Blot GLB-1 expression, UM-SCC-74B; assay type: cell-based, human; conditions: 2 Gy + 20 μM PM2, 72 h, n ≥ 3
Protocol: as §1
(§2) Whole-cell lysates were prepared according to standard protocols. Protein concentrations were measured using a DeNovix DS-11 spectrophotometer (DeNovix Inc., Wilmington, DE, USA). Samples were separated on 4–12% Bis-Tris SDS gels and transferred to a nitrocellulose membrane (ThermoFisher Scientific, Uppsala, Sweden) by wet-transfer blotting. The membrane was blocked for 1 h in PBS with 5% BSA before incubation with primary antibodies targeting p53, caspase-3, NaK-ATPase and GLB1 (DO-1 (ab1101), ab13847, ab76020 and ab128993, AbCam, Cambridge, UK) and β-actin (A5441, Sigma Aldrich Sweden, Stockholm, Sweden) at 4°C overnight. After washing with PBS with 1% Tween-20, the membrane was incubated with respective and species-specific Horse Radish Peroxidase-labeled secondary antibody (ThermoFisher Scientific, Waltham, MA, USA) and stained with electro-chemiluminescent solution (Immobilon, Millipore, Bedford, USA).

GLB-1 [2] = assay: Western Blot GLB-1 expression, HCT116; assay type: cell-based; conditions: 2 Gy + 20 μM PM2, n ≥ 3
Protocol: as §1, §2

For `CC(=O)N[C@H](C(=O)N[C@@H](CO)C(=O)N[C@@H](Cc1ccccc1)C(=O)N[C@]1(C)CCCCCCC=CCCC[C@@](C)(C(N)=O)NC(=O)[C@H](CC(C)C)NC(=O)[C@H](CC(C)C)NC(=O)[C@H](C)NC(=O)[C@H](Cc2c[nH]c3ccccc23)NC(=O)[C@H](Cc2ccc(O)cc2)NC(=O)[C@H](CCC(=O)O)NC1=O)[C@@H](C)O` [PM2], the “Maximum time to termination” value (UM-SCC-74B spheroids; 2 × 2 Gy and 3 × PM2) was 25 days, the “Median time to termination” value (UM-SCC-74B spheroids; 2 × 2 Gy and 3 × PM2) was 21 days and the spheroid response (UM-SCC-74B spheroids; 2 × 2 Gy/3 × 20 μM PM2, day 14) was “continuous growth inhibition throughout day 14”. The “spheroid size of untreated controls” value (UM-SCC-74B spheroids; 3 × 2 Gy + single dose of PM2, day 14) was 75%, the “increase of median time to termination compared to untreated controls” value (UM-SCC-74B spheroids; 3 × 2 Gy and 3 × PM2) was 2 fold and the “Maximum time to termination” value (UM-SCC-74B spheroids; 3 × 2 Gy and 3 × PM2) was 35 days. For the same molecule, the “Median time to termination” value (UM-SCC-74B spheroids; 3 × 2 Gy and 3 × PM2) was 28 days, the spheroid response (UM-SCC-74B spheroids; 3 × 2 Gy/3 × 20 μM PM2, day 14) was “continuous growth inhibition throughout day 14” and the “spheroid size of treated spheroids as % of untreated controls” value (UM-SCC-74B spheroids; 5 × 20 μM PM2 at 48 h intervals, day 14, no radiation) was 57%. For the same molecule, the “spheroid size of untreated controls” value (UM-SCC-74B spheroids; 5 × 2 Gy + single dose of PM2, day 14) was 55%, the “Maximum time to termination” value (UM-SCC-74B spheroids; 5 × 2 Gy and 1 × PM2) was 25 days and the “Median time to termination” value (UM-SCC-74B spheroids; 5 × 2 Gy and 1 × PM2) was 21 days. For the same molecule, the “Maximum time to termination” value (UM-SCC-74B spheroids; 5 × 2 Gy and 5 × PM2) was “Not reached”, the “Median time to termination” value (UM-SCC-74B spheroids; 5 × 2 Gy and 5 × PM2) was “Not reached” and the spheroid response (UM-SCC-74B spheroids; 5 × 2 Gy/5 × 20 μM PM2) was “spheroid disintegration and cell death”. For the same molecule, the “Maximum time to termination” value (UM-SCC-74B spheroids; 5 × PM2, no radiation) was 21 days, the “Median time to termination” value (UM-SCC-74B spheroids; 5 × PM2, no radiation) was 21 days and the CDI (UM-SCC-74B spheroids; Day 10, 1 × 20 μM PM2 + 1 × 2 Gy) was 0.705. The CDI (UM-SCC-74B spheroids; Day 10, 1 × 20 μM PM2 + 2 × 2 Gy) was 0.507, the CDI (UM-SCC-74B spheroids; Day 10, 1 × 20 μM PM2 + 3 × 2 Gy) was 0.493 and the CDI (UM-SCC-74B spheroids; Day 10, 1 × 20 μM PM2 + 5 × 2 Gy) was 0.472. For the same molecule, the CDI (UM-SCC-74B spheroids; Day 10, 2 × 20 μM PM2 + 2 × 2 Gy) was 0.209, the CDI (UM-SCC-74B spheroids; Day 10, 3 × 20 μM PM2 + 1 × 2 Gy) was 0.412 and the CDI (UM-SCC-74B spheroids; Day 10, 3 × 20 μM PM2 + 2 × 2 Gy) was 0.122. The CDI (UM-SCC-74B spheroids; Day 10, 3 × 20 μM PM2 + 3 × 2 Gy) was 0.244, the CDI (UM-SCC-74B spheroids; Day 10, 5 × 20 μM PM2 + 1 × 2 Gy) was 0.398 and the CDI (UM-SCC-74B spheroids; Day 10, 5 × 20 μM PM2 + 5 × 2 Gy) was 0.201. The CDI (UM-SCC-74B spheroids; Day 14, 1 × 20 μM PM2 + 1 × 2 Gy) was 1.03, the CDI (UM-SCC-74B spheroids; Day 14, 1 × 20 μM PM2 + 2 × 2 Gy) was 0.93 and the CDI (UM-SCC-74B spheroids; Day 14, 1 × 20 μM PM2 + 3 × 2 Gy) was 0.821. The CDI (UM-SCC-74B spheroids; Day 14, 1 × 20 μM PM2 + 5 × 2 Gy) was 0.815, the CDI (UM-SCC-74B spheroids; Day 14, 2 × 20 μM PM2 + 2 × 2 Gy) was 0.51 and the CDI (UM-SCC-74B spheroids; Day 14, 3 × 20 μM PM2 + 1 × 2 Gy) was 0.944. The CDI (UM-SCC-74B spheroids; Day 14, 3 × 20 μM PM2 + 2 × 2 Gy) was 0.333, the CDI (UM-SCC-74B spheroids; Day 14, 3 × 20 μM PM2 + 3 × 2 Gy) was 0.182 and the CDI (UM-SCC-74B spheroids; Day 14, 5 × 20 μM PM2 + 1 × 2 Gy) was 0.568. For the same molecule, the CDI (UM-SCC-74B spheroids; Day 14, 5 × 20 μM PM2 + 5 × 2 Gy) was 0.023, the “effect on proliferation rate of spheroids” value (UM-SCC-74B spheroids; all combination treatments of PM2 and EBRT, prior to day 14) was “synergistic inhibitory effects” and the “spheroid response (abstract)” value (UM-SCC-74B spheroids; combination of PM2 and EBRT) was “growth inhibition and complete spheroid disintegration”. For the same molecule, the spheroid disintegration (UM-SCC-74B spheroids; five repeated doses of both PM2 (20 μM) and 2 Gy) was 100%, the spheroid growth inhibition (UM-SCC-74B spheroids; repeated PM2 doses at 48 h intervals, no radiation) was “did inhibit growth in a dose-dependent manner” and the spheroid growth inhibition (UM-SCC-74B spheroids; single 20 μM PM2, 48 h incubation, no radiation) was “failed to impair UM-SCC-74B spheroid growth”. For the same molecule, the spheroid growth inhibition (UM-SCC-74B spheroids; single dose of PM2 with EBRT) was “greater inhibitory effects than either treatment alone”, the spheroid growth inhibition (UM-SCC-74B spheroids; two repeated doses of each of PM2 and EBRT (data not shown)) was “growth inhibition surpassing the standard 14-day assay” and the “GLB-1 expression, combination versus irradiated” value (GLB-1 [1]) was “significant increase”. For the same molecule, the “GLB-1 expression versus irradiated and control, combination” value (GLB-1 [2]) was “less pronounced and failed to reach significance”.

— paper PMC6764291 (Frontiers in Oncology, 2019)
